The text below walks through data of publication PMC10539439 (Pharmacological Reports, 2023).

SMILES strings stand for the structures. Where “and” joins values, the source holds several entries; their conditions need not be identical. Equal entries are not always repeated. Where two headings read alike, the source gives them in different places.

The assay addresses T1, TAAR1 (Homo sapiens, UniProt Q96RJ0).
T1 sequence (Q96RJ0 1-339): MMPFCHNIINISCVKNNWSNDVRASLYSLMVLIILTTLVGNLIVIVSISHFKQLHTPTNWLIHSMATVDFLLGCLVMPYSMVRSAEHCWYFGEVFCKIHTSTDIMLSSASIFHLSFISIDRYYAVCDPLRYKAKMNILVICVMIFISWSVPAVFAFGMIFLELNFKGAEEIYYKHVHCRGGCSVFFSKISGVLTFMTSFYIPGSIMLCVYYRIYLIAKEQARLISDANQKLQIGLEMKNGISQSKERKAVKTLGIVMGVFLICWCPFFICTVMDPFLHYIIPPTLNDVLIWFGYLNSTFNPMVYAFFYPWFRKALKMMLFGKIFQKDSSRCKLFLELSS
Nature of the assay: Intrinsic activity, Hit Hunter cAMP assay. The format is cell-based. As for the experimental part: The intrinsic activity study at cells with overexpression of TAAR1 (Eurofins, cat. No. 95-0173C2) was carried out at Eurofins Discoveries (Fremont, USA) using the Hit Hunter cAMP method. This assay monitors the activation of a GPCR via Gi and Gs secondary messenger signaling in a homogenous, non-imaging assay format using a technology developed by DiscoverX called Enzyme Fragment Complementation (EFC) with β-galactosidase (β-Gal) as the functional reporter. The enzyme is split into two complementary portions: EA for Enzyme Acceptor and ED for Enzyme Donor. ED is fused to cAMP and in the assay competes with cAMP generated by cells for binding to a cAMP-specific antibody. Active β-Gal is formed by complementation of exogenous EA to any unbound EDcAMP.
cAMP Hunter cell lines were expanded from freezer stocks according to standard procedures. Cells were seeded in a total volume of 20 µL into white-walled, 384-well microplates and incubated at 37 ℃ for the appropriate time prior to testing. For agonist determination, cells were incubated with a sample to induce a response. Media was aspirated from cells and replaced with 15 µL 2:1 HBSS/10 mM Hepes:cAMP XS + Ab reagent. Intermediate dilution of sample stocks was performed to generate 4X samples in assay buffer. 5 µL of 4 × sample was added to cells and incubated at 37 ℃ or room temperature for 30 or 60 min. Vehicle concentration was 1%. […] Microplates were read following signal generation with a PerkinElmer Envision instrument for chemiluminescent signal detection.
For orientation: cAMP levels reflect the balance of adenylyl cyclase and phosphodiesterase activity.

[1] abbreviates: cAMP, Agonist, Conc(M) 1.00E-07.

In general, EC50 refers to the concentration giving half of the maximal effect. Take `Clc1cccc(N2CCNCC2)c1` [mCPP, 1-(3-Chlorophenyl)piperazine]: the midpoint of the response, the EC50, lay at 237 µM and the “Intrinsic activity at TAAR1 (in words)” value is “weak agonistic activity”. Further, for the setting “cAMP, Agonist, Conc(M) 1e-6”, the “Average Value (raw signal)” value worked out at 1440.00; the “Value 1 / Value 2 (raw signal)” value is 1520 and 1360. Moreover, for the setting “cAMP, Agonist, Conc(M) 1e-5”, the “Average Value (raw signal)” value is given as 1660.00; the “Value 1 / Value 2 (raw signal)” value was 1520 and 1800. Further, under “cAMP, Agonist, Conc(M) 0.0001”, the “Average Value (raw signal)” value is on record as 2760.00; the “Value 1 / Value 2 (raw signal)” value is 2560 and 2960. Also, the Emax at 100 µM (cAMP, Agonist, Conc(M) 0.0001 (10^–4 M), read-out: % Efficacy (of the full agonist tyramine)) is 34%. Also, under setting [1], the “Average Value (raw signal)” value worked out at 1260.00; the “Value 1 / Value 2 (raw signal)” value is 1440 and 1080.

On to `NCCc1ccc(O)cc1` [p-Tyramine], for which the “Curve Bottom” value (cAMP, Agonist) is given as -5.337. Moreover, the “Curve Top” value (cAMP, Agonist) is 100.3. This molecule also displayed a Hill (cAMP, Agonist) of 1.0838. The “Raw Value” is 800 and 1040 (cAMP, Agonist, Conc 0.0254026); 1080 and 1160 (cAMP, Agonist, Conc 0.0762079); 1640 (cAMP, Agonist, Conc 0.228624); 3120 and 3520 (cAMP, Agonist, Conc 0.685871); 4760 and 4680 (cAMP, Agonist, Conc 2.05761); 5360 and 5760 (cAMP, Agonist, Conc 6.17284). The “Raw Value” (cAMP, Agonist, Conc 18.5185) is 5600 and 6120; the “Raw Value” (cAMP, Agonist, Conc 55.5556) is 6160 and 6360; the “Raw Value” (cAMP, Agonist, Conc 166.667) is 6400 and 6000; the “Raw Value” (cAMP, Agonist, Conc 500) is 6520 and 5640. Further, the “Percent Efficacy” value was 12.1951 and 16.0976 (cAMP, Agonist, Conc 0.228624); 41.0732 and 48.8781 (cAMP, Agonist, Conc 0.685871); 73.0732 and 71.5122 (cAMP, Agonist, Conc 2.05761); 84.7805 and 92.5854 (cAMP, Agonist, Conc 6.17284); 89.4634 and 99.6098 (cAMP, Agonist, Conc 18.5185); 100.39 and 104.293 (cAMP, Agonist, Conc 55.5556). Also, the “Percent Efficacy” value is 105.073 and 97.2683 (cAMP, Agonist, Conc 166.667); 107.415 and 90.2439 (cAMP, Agonist, Conc 500). Besides, the Emax (cAMP, Agonist, read-out: Max Response) is 101%. The EC50 (cAMP, Agonist, read-out: RC50 (Result Type EC50)) turned out to be 0.802 µM.
